Measured values published in patent US20100173912A1, “Novel Compound” (priority 2007, published 2010).

Molecular target: T1, human mGluR5b (Homo sapiens, UniProt P41594)
T1 construct: expressed in transfected cells; host or cells: CHO cells, pSwitch vector (Invitrogen), expression induced with mifepristone
Test: FLIPR positive modulator assay in CHO cells expressing human mGluR5b
Format: cell-based
Details: FLIPR second read after EC20 glutamate, normalised to EC20 (basal) and EC100 (total) glutamate response, read-out: pEC50 in the human mGluR5b positive modulator assay (converted)
Experimental: CHO cells expressing human mGluR5b (pSwitch vector, Invitrogen) were maintained in DMEM media with 10% Foetal Calf Serum, 0.005% Hygromycin, Proline(10 mg/mL), Zeocin(0.005%). The media was replaced between subculturing days to remove any excess glutamate build up that may cause receptor desensitization. 24 hrs prior to conducting the assay, cells were plated in 384-well black flat clear bottom plates and mGluR5 expression was induced with the addition of 0.01 nM mifepristone. The plates were incubated at 37° C. to give a monolayer with a confluency of 80%.
The tissue culture medium was aspirated using a Tecan power washer. Cells were loaded with 30 μl of Hanks Balanced Salts (HBSS)+[…]+2 μM Fluo-4+250 μM Brilliant Black+0.01% Pluronic acid. The cells were incubated at 37° C. for 2 hours to allow uptake of the dye Fluo-4AM into the cell cytosol, which was converted to Fluo-4 by natural esterases cleaving the AM region preventing the Fluo-4 leaving the cell. […]
A 0.38 M solution of glutamic acid was prepared in water. […] A fluorescent reading was made. […] A second fluorescent read was made. […]
The compound was added ‘on line’ to the cells and a first FLIPR read was made to estimate agonism. The cell plates were then incubated at 37° C. for 5-10 min after which the chosen EC20 Glutamate was added ‘on line’ and a second FLIPR reading made to estimate modulation. […]

T1 sequence (P41594 21-1212): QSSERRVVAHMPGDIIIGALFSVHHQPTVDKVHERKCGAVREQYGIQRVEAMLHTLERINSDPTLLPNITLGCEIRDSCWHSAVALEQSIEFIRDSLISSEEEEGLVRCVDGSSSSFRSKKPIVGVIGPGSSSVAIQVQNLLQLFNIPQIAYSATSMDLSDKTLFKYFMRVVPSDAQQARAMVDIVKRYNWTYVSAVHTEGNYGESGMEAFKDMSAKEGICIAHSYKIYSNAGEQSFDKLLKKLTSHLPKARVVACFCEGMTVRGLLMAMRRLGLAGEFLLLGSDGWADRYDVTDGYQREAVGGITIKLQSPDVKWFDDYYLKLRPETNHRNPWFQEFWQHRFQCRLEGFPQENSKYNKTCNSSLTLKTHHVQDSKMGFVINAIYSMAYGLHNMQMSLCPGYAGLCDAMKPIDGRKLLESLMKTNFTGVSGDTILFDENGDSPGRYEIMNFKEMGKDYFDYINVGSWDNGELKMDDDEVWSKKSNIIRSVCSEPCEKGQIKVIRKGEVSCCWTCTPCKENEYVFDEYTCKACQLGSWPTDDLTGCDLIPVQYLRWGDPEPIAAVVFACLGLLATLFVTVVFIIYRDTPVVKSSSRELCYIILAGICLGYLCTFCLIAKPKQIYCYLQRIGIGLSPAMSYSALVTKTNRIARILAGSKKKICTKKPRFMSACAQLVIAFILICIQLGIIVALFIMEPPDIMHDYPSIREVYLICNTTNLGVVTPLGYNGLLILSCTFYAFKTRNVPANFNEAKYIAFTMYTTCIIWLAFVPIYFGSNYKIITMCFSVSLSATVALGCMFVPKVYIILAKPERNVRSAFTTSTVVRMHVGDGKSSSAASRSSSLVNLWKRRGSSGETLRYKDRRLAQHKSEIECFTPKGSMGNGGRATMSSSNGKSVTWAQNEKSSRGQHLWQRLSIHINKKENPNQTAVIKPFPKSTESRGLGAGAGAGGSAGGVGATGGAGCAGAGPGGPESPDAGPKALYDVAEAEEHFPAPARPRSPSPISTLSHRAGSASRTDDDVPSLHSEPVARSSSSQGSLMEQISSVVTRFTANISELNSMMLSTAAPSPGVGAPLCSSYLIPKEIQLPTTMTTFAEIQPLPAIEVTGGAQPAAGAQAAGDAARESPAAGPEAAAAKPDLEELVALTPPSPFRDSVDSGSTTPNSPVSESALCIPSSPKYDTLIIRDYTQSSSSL

With `N#Cc1cc(F)ccc1N1CCN(C(=O)COCc2ccc(F)cc2)CC1` [5-fluoro-2-[4-({[(4-fluorophenyl)methyl]oxy}acetyl)-1-piperazinyl]benzonitrile] the EC50 was less than 1000 nM.
